Assay results published in patent US20140242551A1, “Oral Care System and Method” (priority 2013, published 2014).

What was measured:
[1] = in-vitro test of oral rinses' ability to destroy or reduce microbial VSC toxins; conditions: 30 second exposure
Source text: FIG. 7 is an exemplary table of comparative laboratory text results, and a corresponding graphical representation of the average reduction in […] of each compound listed in the table.
FIG. 7 is an exemplary table of comparative laboratory text results, and a corresponding graphical representation of the average reduction in Volatile Sulfur Compounds of each compound listed in the table. More specifically, the table data and corresponding chart presents the results of controlled laboratory tests conducted on Aug. 11, 2012. The in-vitro tests simulated actual patient-use conditions anticipated in root canal and periodontal procedures. The measurements compare oral rinses based on their ability to destroy or reduce microbial VSC toxins after a 30 second exposure. The tests were completed for a variety of toxins including those produced by Porphyromonas gingivalis, Prevotella intermedia, Tannerella forsythia, Treponema socranskii, and Streptococcus mitis, all of which are routinely present in the oral cavity during periodontal and endodontic procedures.

[2] = tested on: Aggregatibacter actinomycetemcomitans; assay: standard Minimum Inhibitory Concentration test; assay type: cell-based; conditions: 18 to 24 hour test; CD at 37 parts per million, active for only three minutes
Description: (§1) FIG. 8 is an exemplary table of comparative laboratory test results illustrating Minimum Inhibitor Concentration of CD at a concentration of 37 parts per million versus Chlorhexidine (CHX) in effectiveness to destroy bacteria and yeast.
(§2) FIG. 8 is an exemplary table listing the comparative results of an 18 to 24 hour standard Minimum Inhibitory Concentration test of a chlorhexidine oral rinse solutions' effectiveness in inhibiting growth of bacteria typically found in the oral cavity, and during dental procedures. More specifically, under controlled test conditions of the University of Iowa College of Dentistry, May 15, 2012, a CD rinse solution was tested against and compared to the chlorhexidine (CHX) as shown.
(§3) It should be noted that even when CHX outperformed CD, or performed as well as CD but at lower concentrations, it did so after continuously acting upon the bacteria for a continuous period of 18 to 24 hours; CD on the other hand while the CD tested had been active for only three minutes, yet remarkably continued to inhibit growth for the subsequent testing time period.

[3] = tested on: bacteria typically found in the oral cavity; assay: standard Minimum Inhibitory Concentration test, other listed bacteria; assay type: cell-based; conditions: 18 to 24 hour MIC test
Description: as §1, §2, §3

[4] = tested on: Listeria, E. Coli, Pseudomonas, Salmonella, Staphylococcus, Streptococcus and others; conditions: within 30-60 seconds; cited from earlier work
[5] = in humans, including rare cases of anaphylactic shock; cited from earlier work

SMILES | microbial toxins destroyed (reduction in Volatile Sulfur Compounds) [1] [%] | Minimum Inhibitory Concentration, as dilution of rinse inhibiting growth [2] | growth inhibition compared with CHX (result in words) [3] | log reduction [4] [log] | reduction [4] [%] | toxin reduction (result in words) [1] | incidence of hypersensitivity reactions [5] [%]
[O][Cl+][O-] [CD, chlorine dioxide] | 100 | 1/32 | equally well or slightly less well than CHX | 5 | 99.999 |  | 
[H]/N=C(\N/C(=N/[H])NCCCCCCNC(=N)NC(=N)Nc1ccc(Cl)cc1)Nc1ccc(Cl)cc1 [Chlorhexidine, reference compound] |  | ⅛ |  |  |  | statistically nonsignificant drops | 2
